Assay results: ChEMBL document CHEMBL1201862, “PubChem BioAssay data set” (2004)
Activity calls are given as the source filed them.

Assays:
[1] = target: T1, Replicative DNA helicase DnaB (Mycobacterium tuberculosis, UniProt P9WMR3); assay: DnaB intein splicing inhibitors, dose response, biochemical, cell-free fluorescence (AID 449749); type: functional
T1 sequence (P9WMR3 whole entry): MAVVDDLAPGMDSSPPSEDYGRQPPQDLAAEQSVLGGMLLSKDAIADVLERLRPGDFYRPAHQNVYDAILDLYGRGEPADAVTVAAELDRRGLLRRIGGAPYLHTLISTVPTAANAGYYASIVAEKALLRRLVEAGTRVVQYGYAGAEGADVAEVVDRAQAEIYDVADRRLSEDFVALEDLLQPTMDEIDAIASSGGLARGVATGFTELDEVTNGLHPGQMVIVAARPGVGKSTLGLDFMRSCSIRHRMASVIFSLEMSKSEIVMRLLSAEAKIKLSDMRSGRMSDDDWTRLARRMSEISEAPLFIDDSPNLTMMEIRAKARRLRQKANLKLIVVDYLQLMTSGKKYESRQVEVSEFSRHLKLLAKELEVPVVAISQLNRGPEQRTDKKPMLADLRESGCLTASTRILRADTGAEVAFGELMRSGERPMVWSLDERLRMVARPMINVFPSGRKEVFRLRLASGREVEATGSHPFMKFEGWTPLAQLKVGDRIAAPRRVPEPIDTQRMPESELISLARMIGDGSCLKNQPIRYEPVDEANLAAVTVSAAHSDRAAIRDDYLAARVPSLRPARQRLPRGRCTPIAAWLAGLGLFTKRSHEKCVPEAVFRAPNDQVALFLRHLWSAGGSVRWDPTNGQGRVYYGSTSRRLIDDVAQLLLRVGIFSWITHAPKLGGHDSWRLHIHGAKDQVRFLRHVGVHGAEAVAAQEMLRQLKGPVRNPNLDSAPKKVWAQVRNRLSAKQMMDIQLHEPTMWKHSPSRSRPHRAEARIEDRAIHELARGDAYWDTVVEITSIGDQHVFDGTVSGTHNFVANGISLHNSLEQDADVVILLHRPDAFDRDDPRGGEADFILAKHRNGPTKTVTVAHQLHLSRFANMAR

[2] = target: Dual specificity protein phosphatase 3 (Homo sapiens, UniProt P51452); assay: VHR1 phosphatase inhibitors, primary screen, biochemical, absorbance, uHTS (AID 1654)
Dual specificity protein phosphatase 3, sequence (P51452 whole entry): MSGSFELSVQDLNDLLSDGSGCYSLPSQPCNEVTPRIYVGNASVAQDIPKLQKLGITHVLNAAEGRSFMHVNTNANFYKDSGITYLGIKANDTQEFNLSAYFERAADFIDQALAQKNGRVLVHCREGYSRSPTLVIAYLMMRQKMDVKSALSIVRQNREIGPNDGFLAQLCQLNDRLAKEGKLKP

| Structure (SMILES) | AC50 [1] | IC50 [2] |
| --- | --- | --- |
| COC(=O)c1cc(C)nc2c1C(=O)C(=O)C=C2N1CCOCC1 | 1360 nM (active) |  |
| NS(=O)(=O)c1cc(C(=O)NC2CCSc3ccccc32)ccc1Cl (configuration not stated) |  | < 1230 nM (inactive) |
